# According to patent US11045482B2, “Use of glucocorticoid receptor modulators in the treatment of catecholamine-secreting tumors” (Corcept Therapeutics, Inc., priority 2017, dated 2021):
# Key:
# [1] = tested on: metastatic pheochromocytoma associated with ectopic ACTH secretion; experiment: Case of a person with metastatic pheochromocytoma and Cushing syndrome given mifepristone (Example 1); type: in vivo, human
# Procedure: A person with metastatic pheochromocytoma associated with ectopic ACTH secretion unresponsive to conventional chemotherapy with CVD (cyclophosphamide, vincristine and dacarbazine) and Sunitinib (tyrosine kinase inhibitors) was enrolled in a phase 2 study with a somatostatin analog. […] At the same time the diagnosis of Cushing syndrome was made and 300 mg of Mifepristone was added to their regimen and the dose was further increased to 600 mg daily two weeks later. […] The plasma epinephrine level after 2 weeks of therapy with mifepristone was decreased by 50%, and the plasma metanephrine level was decreased by 25% after 9 weeks of therapy.
# [2] = tested on: metastatic or unresectable catecholamine-secreting tumor; experiment: Patient with metastatic or unresectable catecholamine-secreting tumor: blood catecholamine level after five weeks of treatment (Examples 2-77); type: in vivo, human
# Procedure: A patient having a metastatic or unresectable catecholamine-secreting tumor, who is not in need of treatment with a glucocorticoid receptor antagonist, and is not receiving exogenous glucocorticoid receptor agonist treatment, is administered an effective amount of mifepristone at a daily dose of 50 mg/kg/day.
# A patient having a metastatic or unresectable catecholamine-secreting tumor, who is not in need of treatment with a glucocorticoid receptor antagonist, and is not receiving exogenous glucocorticoid receptor agonist treatment, is administered an effective amount of mifepristone at a daily dose of 20 mg/kg/day.
# A patient having a metastatic or unresectable catecholamine-secreting tumor, who is not in need of treatment with a glucocorticoid receptor antagonist, and is not receiving exogenous glucocorticoid receptor agonist treatment, is administered an effective amount of mifepristone at a daily dose of 15 mg/kg/day.
# A patient having a metastatic or unresectable catecholamine-secreting tumor, who is not in need of treatment with a glucocorticoid receptor antagonist, and is not receiving exogenous glucocorticoid receptor agonist treatment, is administered an effective amount of mifepristone at a daily dose of 10 mg/kg/day.
# A patient having a metastatic or unresectable catecholamine-secreting tumor, who is not in need of treatment with a glucocorticoid receptor antagonist, and is not receiving exogenous glucocorticoid receptor agonist treatment, is administered an effective amount of mifepristone at a daily dose of 5 mg/kg/day.
# A patient having a metastatic or unresectable catecholamine-secreting tumor, who is not in need of treatment with a glucocorticoid receptor antagonist, and is not receiving exogenous glucocorticoid receptor agonist treatment, is administered an effective amount of mifepristone at a daily dose of 50 mg/kg/day, and is also administered chemotherapy.
# A patient having a metastatic or unresectable catecholamine-secreting tumor, who is not in need of treatment with a glucocorticoid receptor antagonist, and is not receiving exogenous glucocorticoid receptor agonist treatment, is administered an effective amount of mifepristone at a daily dose of 20 mg/kg/day, and is also administered chemotherapy.
# A patient having a metastatic or unresectable catecholamine-secreting tumor, who is not in need of treatment with a glucocorticoid receptor antagonist, and is not receiving exogenous glucocorticoid receptor agonist treatment, is administered an effective amount of mifepristone at a daily dose of 15 mg/kg/day, and is also administered chemotherapy.
# A patient having a metastatic or unresectable catecholamine-secreting tumor, who is not in need of treatment with a glucocorticoid receptor antagonist, and is not receiving exogenous glucocorticoid receptor agonist treatment, is administered an effective amount of mifepristone at a daily dose of 10 mg/kg/day, and is also administered chemotherapy.
# A patient having a metastatic or unresectable catecholamine-secreting tumor, who is not in need of treatment with a glucocorticoid receptor antagonist, and is not receiving exogenous glucocorticoid receptor agonist treatment, is administered an effective amount of mifepristone at a daily dose of 5 mg/kg/day, and is also administered chemotherapy.
# A patient having a metastatic or unresectable catecholamine-secreting tumor, who is not in need of treatment with a glucocorticoid receptor antagonist, and is not receiving exogenous glucocorticoid receptor agonist treatment, is administered an effective amount of mifepristone at a daily dose of 50 mg/kg/day, and is also administered an adrenergic antagonist. […]
# [3] = tested on: rat phenylethanolamine N-methyltransferase (PNMT) gene promoter; conditions: RU486 10 μM; cited from earlier work
# [4] = after 3 months of therapy with mifepristone
# [5] = one week after the discontinuation of mifepristone
compound,measurement,setting,value
"CC#C[C@]1(O)CC[C@H]2[C@@H]3CCC4=CC(=O)CCC4=C3[C@@H](c3ccc(N(C)C)cc3)C[C@@]21C [mifepristone, 11β-(4-dimethylaminophenyl)-17β-hydroxy-17α-(1-propynyl)-estra-4,9-dien-3-one]",plasma epinephrine level decreased by,[1]; after 2 weeks of therapy with mifepristone (300 mg),50%
same,metanephrine level,[1]; [4],slightly elevated
same,symptoms of catecholamine excess,[1]; [4],controlled
same,adverse event,"[1]; after 3 months of therapy, mifepristone temporarily withheld",vaginal bleeding
same,plasma metanephrine level decreased by,"[1]; after 9 weeks of therapy (300 mg, increased to 600 mg daily two weeks later)",25%
same,metanephrine measurement after discontinuation compared to the level during mifepristone dosing,[1]; [5],fourfold increase
same,symptoms of catecholamine excess after discontinuation,[1]; [5],worse symptoms of catecholamine excess
same,symptoms related to cortisol excess as well as to catecholamine excess,"[1]; one week after the institution of mifepristone (300 mg), added to somatostatin analog, atenolol, phenoxybenzamine",dramatic improvement
same,blood level of a catecholamine after five weeks of treatment as compared to the initial level,"[2]; daily dose of 1 mg/kg/day, also administered somatostatin",lower
same,blood level of a catecholamine after five weeks of treatment as compared to the initial level,[2]; daily dose of 5 mg/kg/day,lower
same,blood level of a catecholamine after five weeks of treatment as compared to the initial level,"[2]; daily dose of 5 mg/kg/day, also administered a somatostatin analog",lower
same,blood level of a catecholamine after five weeks of treatment as compared to the initial level,"[2]; daily dose of 5 mg/kg/day, also administered an adrenergic antagonist",lower
same,blood level of a catecholamine after five weeks of treatment as compared to the initial level,"[2]; daily dose of 5 mg/kg/day, also administered chemotherapy",lower
same,blood level of a catecholamine after five weeks of treatment as compared to the initial level,"[2]; daily dose of 5 mg/kg/day, also administered somatostatin",lower
same,blood level of a catecholamine after five weeks of treatment as compared to the initial level,"[2]; daily dose of 5 mg/kg/day, also receives Peptide Receptor Radionuclide Therapy",lower
same,blood level of a catecholamine after five weeks of treatment as compared to the initial level,[2]; daily dose of 10 mg/kg/day,lower
same,blood level of a catecholamine after five weeks of treatment as compared to the initial level,"[2]; daily dose of 10 mg/kg/day, also administered a somatostatin analog",lower
same,blood level of a catecholamine after five weeks of treatment as compared to the initial level,"[2]; daily dose of 10 mg/kg/day, also administered an adrenergic antagonist",lower
same,blood level of a catecholamine after five weeks of treatment as compared to the initial level,"[2]; daily dose of 10 mg/kg/day, also administered chemotherapy",lower
same,blood level of a catecholamine after five weeks of treatment as compared to the initial level,"[2]; daily dose of 10 mg/kg/day, also administered somatostatin",lower
same,blood level of a catecholamine after five weeks of treatment as compared to the initial level,"[2]; daily dose of 10 mg/kg/day, also receives Peptide Receptor Radionuclide Therapy",lower
same,blood level of a catecholamine after five weeks of treatment as compared to the initial level,[2]; daily dose of 15 mg/kg/day,lower
same,blood level of a catecholamine after five weeks of treatment as compared to the initial level,"[2]; daily dose of 15 mg/kg/day, also administered a somatostatin analog",lower
same,blood level of a catecholamine after five weeks of treatment as compared to the initial level,"[2]; daily dose of 15 mg/kg/day, also administered chemotherapy",lower
same,blood level of a catecholamine after five weeks of treatment as compared to the initial level,"[2]; daily dose of 15 mg/kg/day, also receives Peptide Receptor Radionuclide Therapy",lower
same,blood level of a catecholamine after five weeks of treatment as compared to the initial level,[2]; daily dose of 20 mg/kg/day,lower
same,blood level of a catecholamine after five weeks of treatment as compared to the initial level,"[2]; daily dose of 20 mg/kg/day, also administered a somatostatin analog",lower
same,blood level of a catecholamine after five weeks of treatment as compared to the initial level,"[2]; daily dose of 20 mg/kg/day, also administered an adrenergic antagonist",lower
same,blood level of a catecholamine after five weeks of treatment as compared to the initial level,"[2]; daily dose of 20 mg/kg/day, also administered an adrenergic antagonist and Peptide Receptor Radionuclide Therapy",lower
same,blood level of a catecholamine after five weeks of treatment as compared to the initial level,"[2]; daily dose of 20 mg/kg/day, also administered chemotherapy",lower
same,blood level of a catecholamine after five weeks of treatment as compared to the initial level,"[2]; daily dose of 20 mg/kg/day, also administered chemotherapy and a somatostatin analog",lower
same,blood level of a catecholamine after five weeks of treatment as compared to the initial level,"[2]; daily dose of 20 mg/kg/day, also administered chemotherapy and an adrenergic antagonist",lower
same,blood level of a catecholamine after five weeks of treatment as compared to the initial level,"[2]; daily dose of 20 mg/kg/day, also administered chemotherapy and somatostatin",lower
same,blood level of a catecholamine after five weeks of treatment as compared to the initial level,"[2]; daily dose of 20 mg/kg/day, also administered somatostatin",lower
same,blood level of a catecholamine after five weeks of treatment as compared to the initial level,"[2]; daily dose of 20 mg/kg/day, also receives Peptide Receptor Radionuclide Therapy",lower
same,blood level of a catecholamine after five weeks of treatment as compared to the initial level,[2]; daily dose of 50 mg/kg/day,lower
same,blood level of a catecholamine after five weeks of treatment as compared to the initial level,"[2]; daily dose of 50 mg/kg/day, also administered an adrenergic antagonist",lower
same,blood level of a catecholamine after five weeks of treatment as compared to the initial level,"[2]; daily dose of 50 mg/kg/day, also administered chemotherapy",lower
same,blood level of a catecholamine after five weeks of treatment as compared to the initial level,"[2]; single pharmaceutical composition comprising 50 mg mifepristone and a somatostatin analog, daily for five weeks",lower
same,blood level of a catecholamine after five weeks of treatment as compared to the initial level,"[2]; single pharmaceutical composition comprising 50 mg mifepristone and an adrenergic antagonist, daily for five weeks, also chemotherapy",lower
same,blood level of a catecholamine after five weeks of treatment as compared to the initial level,"[2]; single pharmaceutical composition comprising 50 mg mifepristone and somatostatin, daily for five weeks",lower
same,blood level of a catecholamine after five weeks of treatment as compared to the initial level,"[2]; single pharmaceutical composition comprising 100 mg mifepristone and a somatostatin analog, daily for five weeks",lower
same,blood level of a catecholamine after five weeks of treatment as compared to the initial level,"[2]; single pharmaceutical composition comprising 100 mg mifepristone and an adrenergic antagonist, daily for five weeks",lower
same,blood level of a catecholamine after five weeks of treatment as compared to the initial level,"[2]; single pharmaceutical composition comprising 100 mg mifepristone and an adrenergic antagonist, daily for five weeks, also chemotherapy",lower
same,blood level of a catecholamine after five weeks of treatment as compared to the initial level,"[2]; single pharmaceutical composition comprising 100 mg mifepristone and somatostatin, daily for five weeks",lower
same,blood level of a catecholamine after five weeks of treatment as compared to the initial level,"[2]; single pharmaceutical composition comprising 300 mg mifepristone and a somatostatin analog, daily for five weeks",lower
same,blood level of a catecholamine after five weeks of treatment as compared to the initial level,"[2]; single pharmaceutical composition comprising 300 mg mifepristone and an adrenergic antagonist, daily for five weeks",lower
same,blood level of a catecholamine after five weeks of treatment as compared to the initial level,"[2]; single pharmaceutical composition comprising 300 mg mifepristone and an adrenergic antagonist, daily for five weeks, also chemotherapy",lower
same,blood level of a catecholamine after five weeks of treatment as compared to the initial level,"[2]; single pharmaceutical composition comprising 300 mg mifepristone and somatostatin, daily for five weeks",lower
same,inhibition of dexamethasone (1 μM) activation of the PNMT promoter,[3],fully inhibited
